Measured values taken from patent US8188059B2, “Compounds and methods for modulating expression of GCGR” (Isis Pharmaceuticals, Inc., priority 2006, dated 2012).

Key:
Format in all cases: in vivo, mouse
[1] = Total and full-length antisense compound concentrations in liver and kidney (Example 4, Table 42); conditions: C57/BL6 mice; single i.p. dose; 48 h; dose not given
Experimental: (§1) Eight-week old male C57/BL6 mice (Jackson Laboratory, Bar Harbor, Me.) were administered a single dose of GCGR oligonucleotide by intraperitoneal injection at a concentration of […]. Each dose group consisted of four animals. Shown in Table 31 are the sequences, motifs and conjugates of the GCGR antisense compounds used in this study. Bolded residues indicate 2′-O-methoxyethyl (2′-MOE) moieties. All compounds comprise phosphorothioate internucleoside linkages throughout and each cytosine is replaced with 5-methylcytosine. ISIS 386626, ISIS 386627 and ISIS 386628 further comprise a C16 conjugate group attached to the 2′-O position of the sugar via a diamide linkage (2′-OCH2C(═O)N(H)(CH2)4N(H)C(═O)—(CH2)15CH3). GCGR antisense compounds target published GCGR sequences, including Genbank® Accession No. BC031885.1 (SEQ ID NO: 7).
(§2) Mice were sacrificed 48 hours following injection to determine serum transaminase levels (Table 32); liver, white adipose tissue (WAT), spleen and kidney weight (Table 33); cholesterol, triglyceride and glucose levels (Table 34); GCGR mRNA levels (Tables 35-41); and full-length and total oligonucleotide concentration in liver and kidney (Table 42). Endpoints were assessed using methods described herein and well known to those of ordinary skill in the art. Data is included from a pre-treatment bleed (Pre-Bleed) and post-treatment bleed (Post-Bleed).
Treatment with the 2-10-2 MOE gapmers led to a significant dose-dependent decrease in GCGR mRNA expression. […] To determine whether the observed increase in efficiency with the short antisense compounds is due to an increase in antisense compound accumulation, full-length and total antisense compound concentration in the liver and kidney were determined.

[2] = test system: GCGR mRNA; test: GCGR mRNA levels in liver of C57/BL6 mice, single i.p. dose (Example 4, Tables 35-41); conditions: 48 h, Table 35 comparison ISIS 148364 & ISIS 386626
Experimental: as §1, §2
To determine whether the phenotypic changes shown above correlated with a decrease in GCGR mRNA, treated animals were evaluated for levels of target mRNA in liver by real time PCR according to methods described herein. Tables 35 to 41 show results from direct comparisons of the antisense compounds targeting GCGR nucleic acid for their effect on target expression. Results are expressed as percent of saline control.

[3] = Triglyceride, cholesterol and glucose levels, pre-bleed and post-bleed (Example 4, Table 34); design: TRIG Pre-Bleed / TRIG Post-Bleed / CHOL Pre-Bleed / CHOL Post-Bleed / Glucose Pre-Bleed / Glucose Post-Bleed: unit not given here; conditions: C57/BL6 mice; for CHOL Pre-Bleed / Glucose Pre-Bleed / TRIG Pre-Bleed: pre-treatment bleed; for CHOL Post-Bleed / Glucose Post-Bleed / TRIG Post-Bleed: post-treatment bleed, 48 h
Experimental: as §1, §2

[4] = Organ weights: liver, white adipose tissue, spleen, kidney (Example 4, Table 33); conditions: 48 h, C57/BL6 mice
Experimental: as §1, §2

[5] = ALT & AST levels, C57/BL6 mice (Example 4, Table 32); conditions: for ALT Pre-Bleed / AST Pre-Bleed: pre-treatment bleed; for ALT Post-Bleed / AST Post-Bleed: 48 hours following injection
Experimental: as §1, §2

Substance: 386626 (antisense GCTTCTCCATCATA; chemistry not fully specified) [compound 386626]
- Full-length antisense compound concentration, Kidney [1]: 355 µg/g
- Full-length antisense compound concentration, Liver [1]: 125 µg/g
- Total antisense compound concentration, Kidney [1]: 757 µg/g
- Total antisense compound concentration, Liver [1]: 274 µg/g
- GCGR mRNA levels in liver ([2]; 6.25 mg/kg single i.p.): 7% of saline control
- GCGR mRNA levels in liver ([2]; 12.5 mg/kg single i.p.): 3% of saline control
- GCGR mRNA levels in liver ([2]; 25 mg/kg single i.p.): 8% of saline control
- GCGR mRNA levels in liver ([2]; 50 mg/kg single i.p.): 0% of saline control
- CHOL Pre-Bleed ([3]; 6.25 mg/kg group): 85
- Glucose Pre-Bleed ([3]; 6.25 mg/kg group): 222
- TRIG Pre-Bleed ([3]; 6.25 mg/kg group): 86
- CHOL Post-Bleed ([3]; 6.25 mg/kg single i.p.): 90
- Glucose Post-Bleed ([3]; 6.25 mg/kg single i.p.): 221
- TRIG Post-Bleed ([3]; 6.25 mg/kg single i.p.): 162
- CHOL Pre-Bleed ([3]; 12.5 mg/kg group): 82
- Glucose Pre-Bleed ([3]; 12.5 mg/kg group): 232
- TRIG Pre-Bleed ([3]; 12.5 mg/kg group): 100
- CHOL Post-Bleed ([3]; 12.5 mg/kg single i.p.): 76
- Glucose Post-Bleed ([3]; 12.5 mg/kg single i.p.): 185
- TRIG Post-Bleed ([3]; 12.5 mg/kg single i.p.): 148
- CHOL Pre-Bleed ([3]; 25 mg/kg group): 87
- Glucose Pre-Bleed ([3]; 25 mg/kg group): 235
- TRIG Pre-Bleed ([3]; 25 mg/kg group): 100
- CHOL Post-Bleed ([3]; 25 mg/kg single i.p.): 72
- Glucose Post-Bleed ([3]; 25 mg/kg single i.p.): 186
- TRIG Post-Bleed ([3]; 25 mg/kg single i.p.): 187
- CHOL Pre-Bleed ([3]; 50 mg/kg group): 79
- Glucose Pre-Bleed ([3]; 50 mg/kg group): 239
- TRIG Pre-Bleed ([3]; 50 mg/kg group): 87
- CHOL Post-Bleed ([3]; 50 mg/kg single i.p.): 57
- Glucose Post-Bleed ([3]; 50 mg/kg single i.p.): 179
- TRIG Post-Bleed ([3]; 50 mg/kg single i.p.): 163
- Organ weight: Kidney ([4]; 6.25 mg/kg single i.p.): 100 % saline control
- Organ weight: Liver ([4]; 6.25 mg/kg single i.p.): 100 % saline control
- Organ weight: Spleen ([4]; 6.25 mg/kg single i.p.): 95 % saline control
- Organ weight: WAT ([4]; 6.25 mg/kg single i.p.): 90 % saline control
- Organ weight: Kidney ([4]; 12.5 mg/kg single i.p.): 97 % saline control
- Organ weight: Liver ([4]; 12.5 mg/kg single i.p.): 96 % saline control
- Organ weight: Spleen ([4]; 12.5 mg/kg single i.p.): 114 % saline control
- Organ weight: WAT ([4]; 12.5 mg/kg single i.p.): 73 % saline control
- Organ weight: Kidney ([4]; 25 mg/kg single i.p.): 103 % saline control
- Organ weight: Liver ([4]; 25 mg/kg single i.p.): 109 % saline control
- Organ weight: Spleen ([4]; 25 mg/kg single i.p.): 120 % saline control
- Organ weight: WAT ([4]; 25 mg/kg single i.p.): 97 % saline control
- Organ weight: Kidney ([4]; 50 mg/kg single i.p.): 104 % saline control
- Organ weight: Liver ([4]; 50 mg/kg single i.p.): 112 % saline control
- Organ weight: Spleen ([4]; 50 mg/kg single i.p.): 130 % saline control
- Organ weight: WAT ([4]; 50 mg/kg single i.p.): 77 % saline control
- ALT Pre-Bleed ([5]; 6.25 mg/kg dose group): 26 IU/L
- AST Pre-Bleed ([5]; 6.25 mg/kg dose group): 46 IU/L
- ALT Pre-Bleed ([5]; 12.5 mg/kg dose group): 28 IU/L
- AST Pre-Bleed ([5]; 12.5 mg/kg dose group): 44 IU/L
- ALT Pre-Bleed ([5]; 25 mg/kg dose group): 30 IU/L
- AST Pre-Bleed ([5]; 25 mg/kg dose group): 44 IU/L
- ALT Pre-Bleed ([5]; 50 mg/kg dose group): 28 IU/L
- AST Pre-Bleed ([5]; 50 mg/kg dose group): 48 IU/L
- ALT Post-Bleed ([5]; single i.p. dose 6.25 mg/kg): 42 IU/L
- AST Post-Bleed ([5]; single i.p. dose 6.25 mg/kg): 69 IU/L
- ALT Post-Bleed ([5]; single i.p. dose 12.5 mg/kg): 34 IU/L
- AST Post-Bleed ([5]; single i.p. dose 12.5 mg/kg): 90 IU/L
- ALT Post-Bleed ([5]; single i.p. dose 25 mg/kg): 36 IU/L
- AST Post-Bleed ([5]; single i.p. dose 25 mg/kg): 92 IU/L
- ALT Post-Bleed ([5]; single i.p. dose 50 mg/kg): 40 IU/L
- AST Post-Bleed ([5]; single i.p. dose 50 mg/kg): 120 IU/L
